How the values were obtained:
[1] = test system: Ocular Hypertensive Rabbit; test: Ocular blood flow in ocular hypertensive rabbit (colored microspheres); assay type: in vivo; settings: 1% topical instillation, 30 minutes after drug instillation
Description: 0.5% alcaine was purchased commercially. A 20% sterilized hypertonic saline solution was prepared in the laboratory. Colored microspheres were purchased from E-Z Trac (Los Angeles, Calif.). The colored microspheres were diluted with saline containing 0.01% (v/v) of Tween 80 to prevent the microspheres from sticking together. Two million microspheres in 0.4 ml were injected at each time point.
Female New Zealand white rabbits weighing 2.-3.0 kg, were purchased commercially. Animal care and treatment were followed by the institutional guidelines.
Rabbits were anesthetized with 35 mg/kg ketamine and 5 mg/kg xylazine by intramuscular injection. Half of the initial dose was given every one hour thereafter. The left ventricle was cannulated through the right carotid artery for injection of colored microspheres and the femoral artery was cannulated for collection of blood samples. The left eye was treated with one drop of proparacaine hydrochloride ophthalmic solution (Bausch & Lomb, Inc., Tampa, Fla., USA). The needle was inserted directly into the anterior chamber of the left eye, which was connected to the 40 mmHg saline manometer. The ocular hypertensive model reduced the ocular blood flow to approximately one third of the normal valued. 50 μl of 10 g/l flavone or vehicle (30% HP-β-CD solution) was instilled topically to the left eye 30 minutes after the ocular hypertensive model was built. The ocular blood flow was measured by colored microspheres at 0, 30, 60 and 120 minutes after treatment with the compounds or vehicle. At each time point, 2 million microspheres were injected as a reference, and blood samples were taken from the femoral artery for exactly one minute following injection of the microspheres. The blood sample was collected in a heparinized tube and the volume was recorded. The rabbits were euthanized with an injection of 100 mg/kg pentobarbital sodium after the last blood sampling. The left eyes were enucleated and dissected into the iris, ciliary body, retina and choroid. All the tissues were weighed.
The details of sample processing and microsphere counting were provided by E-Z Trac (Los Angeles, Calif., USA). In brief, the blood hemolysis reagent was added to the microfuge tubes with the blood sample, then vortexed and centrifuged for 30 minutes at 6000 rpm. The supernatant was removed, and then tissue/blood digest reagents I and II were added. The tubes were capped, vortexed, and centrifuged for 30 minutes. […] The number of microspheres was counted by the hemocytometer under the microscope. […] The protocol thereafter was the same as that used to process the blood samples, and the microspheres were counted.
The blood flow of each tissue at a certain time point was calculated according to the following formula: Qm=(Cm×Qr)/Cr. […]

[2] = test system: rat's retinal function after ischemic insult; test: b-wave recovery of retinal function after ischemic insult (ERG); assay type: in vivo; settings: 1% instilled topically
Description: The retinal ischemia experiment has been described previously (Chiou et al., J. Ocular Pharmacol. 9:179-185, 1993, and Chiou et al., J. Ocular Pharmacol. 10:493-498, 1994). Electroretinograms (ERG) were carried out to assess the retinal function prior to and after the ischemic insult. ERGs were recorded using Ag/AgCl electrodes placed in contact with the cornea. One stainless steel needle was inserted subcutaneously between the two eyes as a reference electrode, and another needle was inserted subcutaneously into the neck as a ground electrode. A photostimulator (Grass PS22 Flash) was used to produce flashes of light 5 inches from the eye, and the ERG potentials were recorded on a polygraph. The ERG system was purchased from LKC Technologies, Inc. (Gaithersburg, Md.). A single flash (10 msec) of white light stimuli was used to evoke ERG a- and b-waves. Peak b-wave amplitudes were measured from the trough of the a-wave to the peak of the b-wave.
Long-Evans rats (200-250 g), dark-adapted at least 2 hours, were anaesthetized intramuscularly with ketamine (35 mg/kg) plus xylazine (5 mg/kg). Half of the initial dose was administrated at one hour intervals to maintain adequate anesthesia. The pupils were dilated with 1% tropicamide (50 μl) for ERG experiments. Retinal ischemia was produced by occlusion of the central retina and posterior ciliary arteries using a ligature placed around the optic nerve and posterior ciliary artery. The ligature was drawn tightly through a micropipette tip placed at the base of the eyeball socket to occlude the retinal vessels for 30 min. After 30 min of retinal ischemia, the ligature was liberated and the retinal arteries allowed to reperfuse. ERGs were measured at 30, 60, 90, 120, 180 and 240 min thereafter. The compounds and vehicle were administered topically before occlusion of the central retinal arteries.

SMILES: CC(C)=CCC/C(C)=C/Cc1c(O)cc2c(c1O)C(=O)C[C@@H](c1ccc(O)c(O)c1)O2 [Formula (I)]
- blood flow in choroid [1]: significantly increased
- blood flow in iris [1]: significantly increased
- b-wave amplitude recovery, of the original level ([2]; after 30 min retinal ischemia and reperfusion): approximately 50%
- duration of drug action on b-wave recovery ([2]; after drug application): at least 240 min

— patent US9370503B1, “Compounds for treating ocular diseases” (priority 2015, dated 2016)
